# How the values were obtained:
# [1] = Light absorption spectra and complex formation in phosphate buffer; format: physicochemical; conditions: phosphate buffer 0.05M, pH 8.5, chlorin p6 1.9·10^−5M
# Description: The absorption spectra of the above-obtained associations of polyvinylpyrrolidone with chlorin p6 in the phosphate buffer (0.05M, pH 8.5) are shown on FIG. 1 for the following chlorin p6/polyvinylpyrrolidone ratios (by weight): (1) 1:1; (2) 1:15; (3) 1:40; (4) 1:200; and (5) 1:1000. The concentration of chlorin p6 was 1.9·10^−5M in all investigated solutions.
# The chlorin p6-polyvinylpyrrolidone complex has an absorption maximum in the long-wave region of visible light, and this maximum is shifted towards longer wavelengths (664 nm) compared to free chlorin p6, which has an absorption maximum at 656 nm. Therefore, the use of the association according to the invention as a photosensitizer allows for deeper penetration of radiation into biological tissues, which allows for treating solid tumors and/or deeply located lesions.
# Formation of the complex of polyvinylpyrrolidone with chlorin p6 results in a series of changes in the absorption spectrum. […]
# FIG. 2 presents the experimentally obtained percent of red shift of the absorption maximum of the complex in relation to the content of polyvinylpyrrolidone. […] The spectra were recorded for a series of the solutions of the complex in the phosphate buffer (pH 8.5) at the chlorin p6 concentration of 1.9·10^−5M.
# [2] = test system: Pliss' lymphosarcoma; assay: Tumor necrosis after photodynamic therapy, Pliss' lymphosarcoma; format: in vivo; conditions: rats, photosensitizer 2.5 mg/kg, laser 660 nm, 50 J/cm^2
# Experimental: The studies were performed on white not-inbred laboratory rats having subcutaneously implanted tumors (Pliss' lymphosarcoma). The dose of the administered photosensitizer was 2.5 mg/kg. The necrosis area was estimated based on the functional condition of the tumor's vascular system following laser irradiation (660 nm) at the radiation dose of 50 J/cm^2, when accumulation of the photosensitizer was the highest.
# After 24 hours since the photodynamic therapy, the animals were intravenously given a solution of Evans blue in physiologic saline at the dose of 1.0 ml/100 g of body weight.
# [3] = test system: Walker-256 carcinosarcoma; assay: Inhibition of neoplasm's growth, Walker-256 carcinosarcoma; format: in vivo, rats; conditions: 2.5 mg/kg intraperitoneally, 200 J/cm^2
# Experimental: The use of the association according to the invention allows to achieve a high level of the tumor growth inhibition. In order to confirm this effect, the studies were performed using white rats with implanted neoplasms (Walker-256 carcinosarcoma). A solution of the photosensitizer was administered intraperitoneally at doses of 2.5 mg/kg and the tumor was […] at the radiation dose of 200 J/cm^2. The observation was continued for 21 days following the therapy. FIG. 3 and Table 7 show the dynamics of changes of the absolute rate of the tumor growth, resulting from the use of the association according to the invention (1:15) as well as free chlorin p6. The control group consisted of untreated animals.
# [4] = reference standard; cited from earlier work
Compound,Absorption maximum in the long-wave region of visible light [1] [nm],Depth of necrosis [2] [mm],Necrosis area [2] [%],Neoplasm's growth ([3]; 3 days after photodynamic therapy) [%],Neoplasm's growth ([3]; 7 days after photodynamic therapy) [%],Neoplasm's growth ([3]; 10 days after photodynamic therapy) [%],Neoplasm's growth ([3]; 14 days after photodynamic therapy) [%],Neoplasm's growth ([3]; 21 days after photodynamic therapy) [%],Resumption of tumor growth following the therapy ([3]; observation 21 days),Quantum yield of the singlet-state oxygen (φλ) of the reference solution [4]
"C=Cc1c(C)c2cc3nc(c(C(=O)O)c4[nH]c(cc5nc(cc1[nH]2)C(C)=C5CC)c(C)c4C(=O)O)[C@@H](CCC(=O)O)[C@@H]3C (relative stereo) [chlorin p6, 13-carboxy-17-[2-carboxyethyl]-15-carboxy-17,18-trans-dihydro-3-vinyl-8-ethyl-2,7,12,18-tetramethylporphyrin]",656,7,46.3,0,0,3,8,12,the tumor growth resumes after 10 days,–
"O=S(=O)([O-])c1ccc(-c2c3nc(c(-c4ccc(S(=O)(=O)[O-])cc4)c4ccc([nH]4)c(-c4ccc(S(=O)(=O)[O-])cc4)c4nc(c(-c5ccc(S(=O)(=O)[O-])cc5)c5ccc2[nH]5)C=C4)C=C3)cc1.[Na+].[Na+].[Na+].[Na+] [TSFP, tetrasodium phenylporphyrintetrasulfonate]",–,–,–,–,–,–,–,–,–,0.7

# From patent publication US20050265954A1, “Novel association, a method of its preparation and its uses” (ADAMED, Sp. z.o.o., priority 2004, published 2005)
